In experiment [1] the target is liver alcohol dehydrogenase (LADH). The following applies: inhibit the activity of LADH enzyme, ref [1]; given in words only; cited from earlier work.
A further experiment concerns healthy individuals. Nature of the experiment: Alcohol metabolism in test persons after vodka, alcohol level measured with CA 2000 Digital Alcohol Detector every 30 minutes. The format is in vivo, human. The following applies: from comparing the fructose-containing and fructose-free compositions. The protocol: The study presented in Table 2 and 3 included 10 individuals (6 males and 4 females, 24-57 years old).
In the first study (Table 2A) the test persons were given 8 oz. (ca.2.4 dl) of vodka mixed with 6 dl Sprite (The Coca Cola Company). The alcohol was consumed within one hour. 45 minutes after alcohol consumption each person drank 500 ml water. The alcohol level was then measured as described under.
One week later, the same test persons were given the same amount of vodka and Sprite. 45 minutes after alcohol consumption each test person drank 500 ml of the composition of the present invention. The alcohol level was then measured as described under.
Both part of the second study (Table 2 B) was performed in the same way as described for the study presented […], with the exception that the test persons were given a 500 ml solution containing 90 g fructose, 90 mg caffeine and 500 mg vitamin C instead of the composition of the present invention. The alcohol level was again measured as described below.
The alcohol level (measured in 0/00) was measured with a CA 2000 Digital Alcohol Detector once every 30 minutes in each experiment. Each value is an average of four parallel measurements.

For `CC(=O)N[C@@H](CS)C(=O)O` [acetylcysteine], the Ki entry in experiment [1] was “in the uM-mM area”.
On to `N[C@@H](CS)C(=O)O` [cysteine], for which the Ki result in experiment [1] was “in the uM-mM area”.
Consider `O=C(CO)[C@@H](O)[C@H](O)[C@H](O)CO` [fructose], for which the “contribution to the acceleration of alcohol degradation” value with healthy individuals is given as 20-25%.
Consider `N[C@@H](CCC(=O)N[C@@H](CS)C(=O)NCC(=O)O)C(=O)O` [glutathione], for which the Ki entry in experiment [1] is reported as “in the uM-mM area”.
With `CSCC[C@H](N)C(=O)O` [methionine], the Ki entry in experiment [1] is “in the uM-mM area”.

The values are drawn from US6936283B2, “Composition for stimulation of specific metallo-enzymes” (priority 2003, dated 2005).
